Results as given in US9162992B2, “Compounds and compositions for treatment of breathing control disorders or diseases” (GALLEON PHARMACEUTICALS, INC., priority 2010, dated 2015).
Structures can show the parent of a compound that is named as a salt.

System: spontaneously breathing rats
Assay: Minute ventilation (MV) and cardiovascular parameters in naive rats
Assay type: in vivo, rat
Set-up: unit not given here
Procedure: All surgical procedures were performed under anesthesia induced by 2% isoflurane in compressed medical grade air. With rats in supine position, the right femoral vein was catheterized using polyethylene tubing (PE-50). This catheter was used for fluid and drug administration. Simultaneously, the right femoral artery was also catheterized for monitoring blood pressure and heart rate. In order to measure the respiratory parameters in spontaneously breathing rats, trachea was intubated using 13 gauge tracheal tube (2.5 mm ID, Instech Solomon, Pa.).
After establishing a stable base-line at 1.5% isoflurane, compounds (typically at a dose of 1 mpk) were administered IV, and ventilatory parameters were generated from spontaneously breathing rats, along with cardiovascular output (mean arterial pressure (MAP) and heart rate). Maximum peak minute ventilatory (MV) responses (MPR), along with changes in minute ventilation versus baseline (AMV) were obtained as shown in the tables below.

[1] = Table 8, 1 mpk, 20% HPβCD, pH 4
[2] = Table 8, 1 mpk, 20% HPβCD, pH 6
[3] = Table 8, 1 mpk, 20% HPβCD, pH 4.5
[4] = 1 mpk IV, 20% HPβCD, pH not given

CCCNc1nc(NCCC)c2cc[nH]c2n1
MV MPR (1 mpk IV, 20% HPβCD, pH 4-6): 336 | MV ΔMV (1 mpk IV, 20% HPβCD, pH 4-6): 164

C=CCNc1nc(N2CCC(c3nc(NCCC)nc(NCCC)n3)CC2)c2ccn(C)c2n1 [6-(1-(2-(allylamino)-7-methyl-7H-pyrrolo[2,3-d]pyrimidin-4-yl)piperidin-4-yl)-N^2,N^4-di-n-propyl-1,3,5-triazine-2,4-diamine]
MV MPR (1 mpk IV, 20% HPβCD, pH 5): 154 | MV ΔMV (1 mpk IV, 20% HPβCD, pH 5): 60

CCCNc1nc(N(C)N(C)C)c2ccn(C)c2n1 [7-methyl-N-n-propyl-4-(1,2,2-trimethylhydrazinyl)-7H-pyrrolo[2,3-d]pyrimidin-2-amine]
MV MPR (1 mpk IV, 15/65/20, pH 5): 167 | MV ΔMV (1 mpk IV, 15/65/20, pH 5): 89 | MV MPR (1 mpk IV, 20% HPβCD, pH 4): 175 | MV ΔMV (1 mpk IV, 20% HPβCD, pH 4): 83

CC(C)CNc1nc(NCC(C)C)nc(N2C3CCC2CC(=O)C3)n1 [(1,5)-8-(4,6-bis(isobutylamino)-1,3,5-triazin-2-yl)-8-azabicyclo[3.2.1]octan-3-one]
MV MPR (1 mpk IV, 20% HPβCD, pH 5): 237 | MV ΔMV (1 mpk IV, 20% HPβCD, pH 5): 137

CCCNc1nc(NCCC)nc(N2C3CCC2CC(=O)C3)n1 [(1,5)-8-(4,6-bis(n-propylamino)-1,3,5-triazin-2-yl)-8-azabicyclo[3.2.1]octan-3-one]
MV MPR (1 mpk IV, 20% HPβCD, pH 5): 213 | MV ΔMV (1 mpk IV, 20% HPβCD, pH 5): 98

CCCNc1nc2c(c(N3CCC(O)CC3)n1)CCN2C [CLII, 2-(n-Propyl)amino-4-(4-hydroxypiperidin-1-yl)-7-methyl-pyrrolidino[2,3-d]pyrimidine]
MV MPR (1 mpk IV, 20% HPβCD, pH 4): 49 | MV ΔMV (1 mpk IV, 20% HPβCD, pH 4): 0.33

CCCNc1nc2c(c(N3C4CCC3CC(O)C4)n1)CCN2C (stereo not shown) [CLV, 8-(7-methyl-2-(n-propylamino)-pyrrolidino[2,3-d]pyrimidin-4-yl)-8-azabicyclo[3.2.1]octan-3-ol]
MV MPR (1 mpk IV, 20% HPβCD, pH 4): 170 | MV ΔMV (1 mpk IV, 20% HPβCD, pH 4): 57

C=CCNc1nc(NOC)c2ccn(C)c2n1 [CLX, N-(2-(Propen-2-yl)amino-7-methyl-pyrrolo[2,3d]pyrimidin-4-yl)-O-methyl-hydroxylamine]
MV MPR (1 mpk IV, 20% HPβCD, pH 5): 182 | MV ΔMV (1 mpk IV, 20% HPβCD, pH 5): 103

COCCCNc1nc(NCCCOC)nc(N(C)OC)n1 [CXIII]
MV DMV [1]: 46 | MV MPR [1]: 167.1

CCCNc1nc(N(C)OC)c2cc[nH]c2n1 [CXLI, N-(2-Propylamino-7H-pyrrolo[2,3d]pyrimidin-4-yl)-N,O-dimethyl-hydroxylamine]
MV MPR (1 mpk IV, 20% HPβCD, pH 4-6): 264 | MV ΔMV (1 mpk IV, 20% HPβCD, pH 4-6): 163

CCCNc1nc(NCCC)c2c(n1)NCC2 [CXLIX, 2,4-Bis-(n-propyl)amino-7H-pyrrolidino[2,3-d]pyrimidine]
MV MPR (1 mpk IV, 20% HPβCD, pH 4): 175 | MV ΔMV (1 mpk IV, 20% HPβCD, pH 4): 93 | MV MPR (1 mpk IV, 20% HPβCD, pH 6): 263 | MV ΔMV (1 mpk IV, 20% HPβCD, pH 6): 167 | MV DMV [1]: 93 | MV MPR [1]: 175 | MV DMV [2]: 167 | MV MPR [2]: 263

CON(C)c1nc2nc(n1)NCCOCCOCCOCCN2 [CXVII, N-(5,8,11-Trioxa-2,14,16,18,19-pentaazabicyclo[13.3.1]nonadeca-1(18),15 (19),16(17)-trien-17-yl)-N,O-dimethylhydroxylamine]
MV DMV [3]: 15 | MV MPR [3]: 143.8

CON(C)c1nc(NCC2CCOCC2)nc(NCC2CCOCC2)n1 [CXV]
MV DMV (Table 8, 1 mpk, 15/65/20, pH 4): 33.8 | MV MPR (Table 8, 1 mpk, 15/65/20, pH 4): 155.7

CCCNc1nc(NC(C)C)c2c(n1)N(C)CC2 [CXXVI]
MV MPR (1 mpk IV, 20% HPβCD, pH 5): 327 | MV ΔMV (1 mpk IV, 20% HPβCD, pH 5): 224

CCCNc1nc(NC)c2c(n1)N(C)CC2 [CXXXI, 2-(n-Propyl)amino-4-methylamino-7-methyl-pyrrolidino[2,3-d]pyrimidine]
MV MPR (1 mpk IV, 20% HPβCD, pH 4): 204 | MV ΔMV (1 mpk IV, 20% HPβCD, pH 4): 130

CCCNc1nc(NC(C)C)c2c(n1)N(C(C)C)CC2 [CXXXVI, 2-(n-Propyl)amino-4-(i-propyl)amino-7-i-propyl-pyrrolidino[2,3-d]pyrimidine]
MV MPR (1 mpk IV, 20% HPβCD, pH 4): 238 | MV ΔMV (1 mpk IV, 20% HPβCD, pH 4): 143

CCCNc1cc(N(C)OC)nc(NCCC)n1 [CXX]
MV MPR (1 mpk IV, 20% HPβCD, pH 4-6): 355 | MV ΔMV (1 mpk IV, 20% HPβCD, pH 4-6): 243 | MV DMV [3]: 243 | MV MPR [3]: 355

CCCNc1nc(NCCC)nc(N(C)OCc2ccccc2)n1 [LIII, O-Benzyl-N-(4,6-bis-n-propylamino-[1,3,5]triazin-2-yl)-N-methyl-hydroxylamine]
MV MPR (1 mpk IV, 20% HPβCD, pH 4-6): 288 | MV ΔMV (1 mpk IV, 20% HPβCD, pH 4-6): 179

CCCNc1nc(NCCC)nc(N(C)OC(C)C)n1 [LXIV, N-(4,6-Bis-n-propylamino-[1,3,5]triazin-2-yl)-O-isopropyl-N-methyl-hydroxylamine]
MV MPR [4]: 271 | MV ΔMV [4]: 209

CCCNc1nc(NCCC)nc(N(OCc2ccccc2)C(C)C)n1 [LXXII, 6-((Benzyloxy)(isopropyl)amino)-N^2,N^4-dipropyl-1,3,5-triazine-2,4-diamine]
MV DMV [1]: 82 | MV MPR [1]: 176

CCCNc1nc(NCCC)nc(N(CC)OC(C)C)n1 [LXXVI, N-(4,6-Bis-n-propylamino-[1,3,5]triazin-2-yl)-N-ethyl-O-isopropyl-hydroxylamine]
MV MPR (1 mpk IV, 20% HPβCD, pH 4): 308 | MV ΔMV (1 mpk IV, 20% HPβCD, pH 4): 191 | MV DMV [1]: 191 | MV MPR [1]: 308

CCCNc1nc(NCCC)nc(N(C)OCC(C)C)n1 [LXXXII, N-(4,6-Bis-n-propylamino-[1,3,5]triazin-2-yl)-O-isobutyl-N-methyl-hydroxylamine]
MV MPR (1 mpk IV, 20% HPβCD, pH 4): 248 | MV ΔMV (1 mpk IV, 20% HPβCD, pH 4): 133 | MV DMV [1]: 133 | MV MPR [1]: 248

CCCNc1nc(NCCC)nc(N(C)OCc2cccs2)n1 [LXXXIV, 6-(Methyl(thiophen-2-ylmethoxy)amino)-N^2,N^4-di-n-propyl-1,3,5-triazine-2,4-diamine]
MV MPR (1 mpk IV, 20% HPβCD, pH 4): 213 | MV ΔMV (1 mpk IV, 20% HPβCD, pH 4): 110 | MV DMV [1]: 110 | MV MPR [1]: 213

CCCNc1nc(NCC)nc(NOC)n1 [N^2-ethyl-6-(methoxyamino)-N^4-n-propyl-1,3,5-triazine-2,4-diamine]
MV MPR (1 mpk IV, 20% HPβCD, pH 4-6): 208 | MV ΔMV (1 mpk IV, 20% HPβCD, pH 4-6): 117

CCCNc1nc(NC(C)C)c2ccn(C(C)C)c2n1 [N^4,7-diisopropyl-N^2-n-propyl-7H-pyrrolo[2,3-d]pyrimidine-2,4-diamine]
MV MPR (1 mpk IV, 20% HPβCD, pH 6): 250 | MV ΔMV (1 mpk IV, 20% HPβCD, pH 6): 155

CCCNc1nc(NC(C)C)c2ccn(C)c2n1 [N^4-isopropyl-7-methyl-N^2-n-propyl-7H-pyrrolo[2,3-d]pyrimidine-2,4-diamine]
MV MPR (1 mpk IV, 20% HPβCD, pH 5): 402 | MV ΔMV (1 mpk IV, 20% HPβCD, pH 5): 320

CCCNc1nc(NC(C)C)c2cc[nH]c2n1 [N^4-isopropyl-N^2-n-propyl-7H-pyrrolo[2,3-d]pyrimidine-2,4-diamine]
MV MPR (1 mpk IV, 20% HPβCD, pH 4): 259 | MV ΔMV (1 mpk IV, 20% HPβCD, pH 4): 172

CCCNc1nc(NCCC)nc(N(C)OCC2CC2)n1 [XCI, N-(4,6-Bis-n-propylamino-[1,3,5]triazin-2-yl)-O-cyclopropylmethyl-N-methyl-hydroxylamine]
MV MPR (1 mpk IV, 20% HPβCD, pH 4): 261 | MV ΔMV (1 mpk IV, 20% HPβCD, pH 4): 152 | MV DMV [1]: 152 | MV MPR [1]: 261

CCCNc1nc(NCCC)nc(N(C)NC)n1 [XLIX, N-(4,6-Bis-n-propylamino-[1,3,5]triazin-2-yl)-N,N′-dimethyl-hydrazine]
MV MPR (1 mpk IV, 20% HPβCD, pH 5): 338 | MV ΔMV (1 mpk IV, 20% HPβCD, pH 5): 216

CCCNc1nc(N)nc(N(C)OC)n1 [XLVII, 6-(Methoxy(methyl)amino)-N2-propyl-1,3,5-triazine-2,4-diamine]
MV MPR (1 mpk IV, 20% HPβCD, pH 5): 150.73 | MV ΔMV (1 mpk IV, 20% HPβCD, pH 5): 61.48

CCCNc1nc(NCCC)nc(N(C)O)n1 [XLVIII, N-(4,6-Bis-n-propylamino-[1,3,5]triazin-2-yl)-N-methyl-hydroxylamine]
MV MPR (1 mpk IV, 15/65/20, pH 5): 114 | MV ΔMV (1 mpk IV, 15/65/20, pH 5): 30.13

CNc1nc(NC)nc(N(C)OC)n1 [XX, N-(4,6-Bis-methylamino-[1,3,5]triazin-2-yl)-N,O-dimethyl-hydroxylamine hydrochloride]
MV MPR (1 mpk IV, 20% HPβCD, pH 4-6): 213 | MV ΔMV (1 mpk IV, 20% HPβCD, pH 4-6): 60
